{
  "source": "patent US20190209501A1",
  "about": "“COMPOSITIONS AND METHODS OF USE OF BETA-HYDROXY-BETA-METHYLBUTYRATE (HMB) […] IN[…]” (Texas Tech University Office of Research Commercialization, priority 2018, published 2019)",
  "test": "Body composition, modified 4-component model (DXA + BIS), and body mass",
  "type": "in vivo, human",
  "details": "for FM (kg) Week 4 / FM (kg) Week 8: 4-component fat mass; for FFM (kg) Week 4 / FFM (kg) Week 8: 4-component fat-free mass; for BF % ES (d) / BM ES (d) / FFM ES (d) / FM ES (d): Cohen's d baseline vs week 8; for BM (kg) Week 4 / BM (kg) Week 8: body mass; for BF % Δ (%) / BM Δ (%) / FFM Δ (%) / FM Δ (%): change baseline to week 8 relative to baseline; for BM (kg) Δ / FFM (kg) Δ / FM (kg) Δ: week 8 minus baseline; for BF % Δ: week 8 minus baseline (absolute BF %)",
  "source_text": "At baseline and after 4 and 8 weeks of the intervention, participants completed two testing sessions: (1) a morning assessment conducted after an overnight fast for assessment of body composition, metabolism, vascular measures and subjective factors: and (2) an afternoon assessment of muscular performance, conducted in the non-fasted state. For morning assessments, participants reported to the laboratory after abstention from eating, drinking, exercising and utilizing caffeine or nicotine for ≥8 hours. Participants were interviewed to confirm adherence to these pre-assessment restrictions. The actual abstention from exercise was ≥14 hours due to the scheduling of exercise sessions. Participants reported to the laboratory wearing athletic clothing, and all metal and accessories were removed from the body prior to testing. Each participant voided her bladder and provided a urine sample. Urine samples were assessed for urine specific gravity (USG) using a digital refractometer (PA201X-093. Misco, Solon, Ohio. USA). Additionally, a standard urinary HCG test was performed to confirm that each participant was not pregnant. Finally, urinary samples were frozen at −80° C. for assessment of urinary HMB content after study unblinding. After voiding, each participant's body mass (BM) and height were determined via digital scale with stadiometer (Seca 769, Hamburg, Germany). Blood draws were performed at Texas Tech University Student Health Services after an overnight fast, and participants completed at-home saliva collections for assessment of the cortisol awakening response (CAR).\nBody composition was assessed using a modified 4-component (4C) model (20, 21) produced from dual-energy x-ray absorptiometry (DXA) and bioimpedance spectroscopy (BIS) data. DXA scans were performed on a Lunar Prodigy scanner (General Electric, Boston, Mass., USA) with enCORE software (v. 16.2). The scanner was calibrated using a quality control block each morning prior to use, and positioning of participants was conducted according to manufacturer recommendations. Each participant was able to fit within the scanning dimensions. DXA bone mineral content (BMC) was divided by 0.9582 to yield an estimate of bone mineral (Mo) (22). Additionally, body volume (BV) was estimated from DXA lean soft tissue (LST), fat mass (FM) and BMC using the equation developed by Wilson et al. for General Electric DXA scanners (20):\nBIS was utilized to obtain total body water (TBW) estimates. BIS utilizes Cole modeling (23) and mixture theories (24) to predict body fluids rather than regression equations used by other impedance methods (e.g. bioelectrical impedance analysis (25)). The BIS device used in the present study (SFB7, ImpediMed. Carlsbad, Calif., USA) employs 256 measurement frequencies ranging from 4 to 1,000 kHz. Each participant remained supine for ≥5 minutes immediately prior to assessment using the manufacturer-recommended hand-to-foot electrode arrangement. Duplicate assessments were performed, with the values averaged for analysis. Assessments were reviewed for quality assurance through visual inspection of Cole plots.\nThe 4C equation of Wang et al. was utilized for estimation of whole-body FM (26):\nFFM was calculated as BM−FM, and BF % was calculated as (FM/BM)×100.",
  "key": {"[1]": {"details": "ITT analysis, week 4, mean ± SE"}, "[2]": {"details": "ITT analysis, week 8, mean ± SE"}},
  "note": "Entries after “also recorded” stand apart in the source; their conditions may differ. Marks after values point to notes of the source that are not given here.",
  "data": [
    {"smiles": "CC(C)(O)CC(=O)O", "note": "[TRFHMB, β-hydroxy-β-methylbutyrate]", "values": [
      {"measurement": "Absolute effect size for BF % loss, TRFHMB relative to HMB only", "setting": "4 weeks", "value": 2, "unit": "fold"},
      {"measurement": "BF % Week 4", "setting": "ITT analysis, 4-component body fat percentage, week 4, mean ± SE", "value": "27.1 ± 1.7", "unit": "%"},
      {"measurement": "BF % Week 8", "setting": "ITT analysis, 4-component body fat percentage, week 8, mean ± SE", "value": "27.3 ± 1.6", "unit": "%"},
      {"measurement": "FM (kg) Week 4", "setting": "[1]", "value": "17.5 ± 1.5", "unit": "kg"},
      {"measurement": "FM (kg) Week 8", "setting": "[2]", "value": "17.5 ± 1.5", "unit": "kg"},
      {"measurement": "FFM (kg) Week 4", "setting": "[1]", "value": "46.5 ± 1.4", "unit": "kg"},
      {"measurement": "FFM (kg) Week 8", "setting": "[2]", "value": "46.2 ± 1.3", "unit": "kg"},
      {"measurement": "BF % ES (d)", "setting": "ITT analysis", "value": "−0.25"},
      {"measurement": "BM ES (d)", "setting": "ITT analysis", "value": 0.08},
      {"measurement": "FFM ES (d)", "setting": "ITT analysis", "value": 0.26},
      {"measurement": "FM ES (d)", "setting": "ITT analysis", "value": "−0.13"},
      {"measurement": "BM (kg) Week 4", "setting": "[1]", "value": "63.9 ± 2.2", "unit": "kg"},
      {"measurement": "BM (kg) Week 8", "setting": "[2]", "value": "63.8 ± 2.1", "unit": "kg"},
      {"measurement": "BF % Δ (%)", "setting": "ITT analysis", "value": "−5", "unit": "%"},
      {"measurement": "BM Δ (%)", "setting": "ITT analysis", "value": 1, "unit": "%"},
      {"measurement": "FFM Δ (%)", "setting": "ITT analysis", "value": 3, "unit": "%"},
      {"measurement": "FM Δ (%)", "setting": "ITT analysis", "value": "−4", "unit": "%"},
      {"measurement": "BM (kg) Δ", "setting": "ITT analysis", "value": 0.6, "unit": "kg"},
      {"measurement": "FFM (kg) Δ", "setting": "ITT analysis", "value": 1.2, "unit": "kg"},
      {"measurement": "FM (kg) Δ", "setting": "ITT analysis", "value": -0.7, "unit": "kg"},
      {"measurement": "BF % Δ", "setting": "ITT analysis", "value": "−1.4", "unit": "%"},
      {"measurement": "Fat mass change versus baseline (in words)", "setting": "PP analysis", "value": "significant reductions; also recorded: lower at W8 than baseline"},
      {"measurement": "BF % Week 8", "setting": "PP analysis, 4-component body fat percentage, week 8, mean ± SE", "value": "26.8 ± 2.6^b %"},
      {"measurement": "FM (kg) Week 4", "setting": "PP analysis, week 4, mean ± SE", "value": "17.5 ± 2.5", "unit": "kg"},
      {"measurement": "FM (kg) Week 8", "setting": "PP analysis, week 8, mean ± SE", "value": "17.3 ± 2.3^b kg"},
      {"measurement": "FFM (kg) Week 4", "setting": "PP analysis, week 4, mean ± SE", "value": "46.8 ± 1.8", "unit": "kg"},
      {"measurement": "FFM (kg) Week 8", "setting": "PP analysis, week 8, mean ± SE", "value": "46.4 ± 1.6", "unit": "kg"},
      {"measurement": "BF % ES (d)", "setting": "PP analysis", "value": "−0.34"},
      {"measurement": "BM ES (d)", "setting": "PP analysis", "value": 0.00},
      {"measurement": "FFM ES (d)", "setting": "PP analysis", "value": 0.32},
      {"measurement": "FM ES (d)", "setting": "PP analysis", "value": "−0.23"},
      {"measurement": "BM (kg) Week 4", "setting": "PP analysis, week 4 of TRF + 3 g/d HMB + RT, mean ± SE", "value": "64.2 ± 3.1", "unit": "kg"},
      {"measurement": "BM (kg) Week 8", "setting": "PP analysis, week 8, mean ± SE", "value": "63.7 ± 3.0", "unit": "kg"},
      {"measurement": "BF % Δ (%)", "setting": "PP analysis", "value": "−8", "unit": "%"},
      {"measurement": "BM Δ (%)", "setting": "PP analysis", "value": 0, "unit": "%"},
      {"measurement": "FFM Δ (%)", "setting": "PP analysis", "value": 3, "unit": "%"},
      {"measurement": "FM Δ (%)", "setting": "PP analysis", "value": "−7", "unit": "%"},
      {"measurement": "Reduction in BF % at W8 (significance)", "setting": "PP analysis, week 8", "value": "statistically significant"},
      {"measurement": "BM (kg) Δ", "setting": "PP analysis", "value": 0.0, "unit": "kg"},
      {"measurement": "FFM (kg) Δ", "setting": "PP analysis", "value": 1.4, "unit": "kg"},
      {"measurement": "FM (kg) Δ", "setting": "PP analysis", "value": -1.4, "unit": "kg"},
      {"measurement": "BF % Δ", "setting": "PP analysis", "value": "−2.3", "unit": "%"},
      {"measurement": "BF % 4-week effect size (d)", "setting": "PP, TRF + 3 g/d Calcium-HMB + RT, n=7", "value": "−0.31"},
      {"measurement": "BF % 4-week Δ-change", "setting": "PP, TRF + 3 g/d Calcium-HMB + RT, n=7, baseline 29.1±2.5, p<0.05", "value": "−2.1", "unit": "%"}
    ]}
  ]
}
